IC50 data for 44 compounds are collected here from patent US10611750B2, “Tetrahydroquinoline compositions as bet bromodomain inhibitors” (FORMA Therapeutics, Inc., priority 2013, dated 2020).

Assay [1] deals with T1, BRD4 Bromodomain 1 (BRD4 BD1) (Homo sapiens, UniProt O60885).
T1 construct: 44-168 and BRD4 BD2
The assay is described as follows: AlphaScreen binding assay, BRD4 BD1. To be noted: His-tagged BRD4 BD1 50 nM, biotinylated H4 (1-21) K5/8/12/16 tetra-acetylated peptide 50 nM, compounds listed under IC50 range headings. In short, it runs like this:
(§1)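 Compound dilution series were mixed with His-tagged BRD4 bromodomain and biotinylated tetra-acetylated H4 (1-21) peptide at pH 7.3 (BD1 and peptide at 50 nM, BD2 and peptide at 100 nM). Donor and acceptor beads were then added, and plates were equilibrated at least 1 h before reading. IC50 values were fitted with a four-parameter logistic model.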
A general note: In Alpha technology, singlet oxygen from a donor bead excites a nearby acceptor bead.

The target in assay [2] is T2, BRD4 Bromodomain 2 (BRD4 BD2) (Homo sapiens, UniProt O60885).
T2 construct: 333-460 were cloned, expressed, and purified to homogeneity
The assay is described as follows: AlphaScreen binding assay, BRD4 BD2. To be noted: His-tagged BRD4 BD2 100 nM, biotinylated H4 (1-21) K5/8/12/16 tetra-acetylated peptide 100 nM, compounds listed under IC50 range headings. Summed up: as §1

In assay [3] the test system is acute myelocytic leukemia (AML) cell line MV4-11. The assay is described as follows: Oncology cell growth assay (3-day proliferation, CellTiter-Glo). To be noted: Homo sapiens, MV4-11, 72 h, MV4-11 cells, 3000 cells/well, compounds listed under IC50 range headings, read-out: MV411 IC50 (gIC50, inhibition of proliferation). The format is cell-based. In short, it runs like this:
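Compounds were serially diluted 3-fold in DMSO, giving final well concentrations from 10 down to 0.0045 μM. MV4-11 cells were then seeded at 3000 cells/well in RPMI 1640 with 10% FBS and incubated 72 hours. CellTiter-Glo signal was measured and gIC50 obtained by four-parameter logistic regression.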
A general note: Cellular ATP, detected with luciferase, serves as a proxy for viable cell number.

As for `CC(=O)N1c2ccc(-c3cnn(C4CC4)c3)c(OC3CCC3)c2CC[C@@H]1C` [I-389], the IC50 is 100 to 1000 nM in assay [1], below 50 nM in assay [2] and below 500 nM in assay [3].

Regarding `CC(=O)N1c2ccc(-c3cnn(C4CC4)c3)c(OCC3CC3)c2CC[C@@H]1C` [I-390], the IC50 is 100 to 1000 nM in assay [1], below 50 nM in assay [2] and below 500 nM in assay [3].

Consider `CC(=O)N1c2ccc(-c3cnn(C4CC4)c3)c(OCC3CCC3)c2CC[C@@H]1C` [I-392], for which the IC50 in assay [1] is 100 to 1000 nM; in assay [2], 50 to 500 nM; in assay [3], below 500 nM.

`CC(=O)N1c2ccc(-c3cnn(C4CC4)c3)c(OCC3(C)COC3)c2CC[C@@H]1C` [I-395]: the results for the IC50 in assay [1], in assay [2] and in assay [3] were 100 to 1000 nM, 50 to 500 nM and 500 to 1000 nM, respectively.

As for `CC(=O)N1c2ccc(-c3cnn(C4CC4)c3)c(OC3CCCC3)c2CC[C@@H]1C` [I-396], the IC50 in assay [1] was 100 to 1000 nM; in assay [2] it was below 50 nM; in assay [3], below 500 nM.

For the compound `COCCOc1c(-c2cnn(C3CC3)c2)ccc2c1CC[C@H](C)N2C(C)=O` [I-398], the IC50 in assay [1] was in the range of 100 to 1000 nM; in assay [2] it was 50 to 500 nM; in assay [3] it was 500 to 1000 nM.

For `CC(=O)N1c2ccc(-c3cnn(C4CC4)c3)c(OCC3CCOCC3)c2CC[C@@H]1C` [I-400], the IC50 was 100 to 1000 nM in assay [1], 50 to 500 nM in assay [2] and below 500 nM in assay [3].

Regarding `CC(=O)N1c2ccc(-c3cnn(C4CC4)c3)c(OCC(=O)N(C)C)c2CC[C@@H]1C` [I-401], the IC50 in assay [1] is 100 to 1000 nM; in assay [2], below 50 nM; in assay [3], below 500 nM.

Regarding `CC(=O)N1c2ccc(-c3cnn(C4CC4)c3)c(OCC3CCCCC3)c2CC[C@@H]1C` [I-402], the IC50 in assay [1] was 100 to 1000 nM; in assay [2], 50 to 500 nM; in assay [3] it was 500 to 1000 nM.

As for `CCCOc1c(-c2cnn(CCS(C)(=O)=O)c2)ccc2c1CC[C@H](C)N2C(C)=O` [I-407], the IC50 in assay [1] is 100 to 1000 nM; in assay [2], below 50 nM; in assay [3], below 500 nM.

`CCCOc1c(-c2cnn(CC(C)(C)O)c2)ccc2c1CC[C@H](C)N2C(C)=O` [I-408]: the IC50 in assay [1] was 100 to 1000 nM; in assay [2] it was below 50 nM; in assay [3], below 500 nM.

For the compound `CC(=O)N1c2ccc(-c3cnn(CCS(C)(=O)=O)c3)c(OC3CCC3)c2CC[C@@H]1C` [I-409], the IC50 was 100 to 1000 nM in assay [1], below 50 nM in assay [2] and below 500 nM in assay [3].

On to `CC(=O)N1c2ccc(-c3cnn(CC(C)(C)O)c3)c(OC3CCC3)c2CC[C@@H]1C` [I-410], for which the IC50 in assay [1] was 1000 to 10000 nM; in assay [2], below 50 nM; in assay [3], below 500 nM.

With `CC(=O)N1c2ccc(-c3cnn(CCO)c3)c(OC3CCC3)c2CC[C@@H]1C` [I-411], the IC50 is 100 to 1000 nM in assay [1], below 50 nM in assay [2] and below 500 nM in assay [3].

On to `CC(=O)N1c2ccc(-c3cnn(C4CCNCC4)c3)c(OC3CCC3)c2CC[C@@H]1C` [I-412], for which the values for the IC50 in assay [1], in assay [2] and in assay [3] were 100 to 1000 nM, below 50 nM and below 500 nM, respectively.

`CC(=O)N1c2ccc(-c3cnn(CCS(C)(=O)=O)c3)c(OCC3CCOCC3)c2CC[C@@H]1C` [I-413]: the IC50 was 100 to 1000 nM in assay [1], 50 to 500 nM in assay [2] and below 500 nM in assay [3].

In the case of `CC(=O)N1c2ccc(-c3cnn(CCO)c3)c(OCC3CCOCC3)c2CC[C@@H]1C` [I-415], the results for the IC50 in assay [1], in assay [2] and in assay [3] were below 100 nM, below 50 nM and below 500 nM, respectively.

On to `CC(=O)N1c2ccc(-c3cnn(C4CCNCC4)c3)c(OCC3CCOCC3)c2CC[C@@H]1C` [I-416], for which the results for the IC50 in assay [1], in assay [2] and in assay [3] were below 100 nM, below 50 nM and below 500 nM, respectively.

Regarding `CC(=O)N1c2ccc(-c3cnn(CCS(C)(=O)=O)c3)c(OCC(C)C)c2CC[C@@H]1C` [I-420], the IC50 was 100 to 1000 nM in assay [1], below 50 nM in assay [2] and below 500 nM in assay [3].

For the compound `CC(=O)N1c2ccc(-c3cnn(CCO)c3)c(OCC(C)C)c2CC[C@@H]1C` [I-422], the IC50 in assay [1] is 100 to 1000 nM; in assay [2], below 50 nM; in assay [3], below 500 nM.

For `CC(=O)N1c2ccc(-c3cnn(C4CCNCC4)c3)c(OCC(C)C)c2CC[C@@H]1C` [I-423], the values for the IC50 in assay [1], in assay [2] and in assay [3] were below 100 nM, below 50 nM and below 500 nM, respectively.

Turning to `CC(=O)N1c2ccc(-c3cnn(CCS(C)(=O)=O)c3)c(OCC3CCCC3)c2CC[C@@H]1C` [I-424], the IC50 in assay [1] is 100 to 1000 nM; in assay [2], below 50 nM; in assay [3], below 500 nM.

Turning to `CC(=O)N1c2ccc(-c3cnn(CC(C)(C)O)c3)c(OCC3CCCC3)c2CC[C@@H]1C` [I-425], the IC50 in assay [1] was 100 to 1000 nM; in assay [2], 50 to 500 nM; in assay [3], below 500 nM.

`CC(=O)N1c2ccc(-c3cnn(CCO)c3)c(OCC3CCCC3)c2CC[C@@H]1C` [I-426]: the values for the IC50 in assay [1], in assay [2] and in assay [3] were below 100 nM, below 50 nM and below 500 nM, respectively.

In the case of `CC(=O)N1c2ccc(-c3cnn(C4CCNCC4)c3)c(OCC3CCCC3)c2CC[C@@H]1C` [I-427], the IC50 in assay [1] is below 100 nM; in assay [2], below 50 nM; in assay [3], below 500 nM.

As to `CC(=O)N1c2ccc(-c3cnn(C4CCNCC4)c3)c(OCC(=O)N3CCCC3)c2CC[C@@H]1C` [I-431], the results for the IC50 in assay [1], in assay [2] and in assay [3] were 100 to 1000 nM, 50 to 500 nM and 500 to 1000 nM, respectively.

For the compound `CCCOc1c(-c2cnn(CC(C)(C)O)c2)ccc2c1CC[C@H](C)N2C(=O)OC` [I-442], the values for the IC50 in assay [1], in assay [2] and in assay [3] were 1000 to 10000 nM, below 50 nM and below 500 nM, respectively.

Turning to `CCCOc1c(-c2cnn(CCO)c2)ccc2c1CC[C@H](C)N2C(=O)OC` [I-443], the values for the IC50 in assay [1], in assay [2] and in assay [3] were 1000 to 10000 nM, below 50 nM and below 500 nM, respectively.

With `COC(=O)N1c2ccc(-c3cnn(CCS(C)(=O)=O)c3)c(OC3CCC3)c2CC[C@@H]1C` [I-444], the IC50 in assay [1] is 100 to 1000 nM; in assay [2], below 50 nM; in assay [3], below 500 nM.

For `COC(=O)N1c2ccc(-c3cnn(CC(C)(C)O)c3)c(OC3CCC3)c2CC[C@@H]1C` [I-445], the IC50 was 1000 to 10000 nM in assay [1], below 50 nM in assay [2] and below 500 nM in assay [3].

With `COC(=O)N1c2ccc(-c3cnn(CCO)c3)c(OC3CCC3)c2CC[C@@H]1C` [I-446], the IC50 is 100 to 1000 nM in assay [1], 50 to 500 nM in assay [2] and below 500 nM in assay [3].

Take `COC(=O)N1c2ccc(-c3cnn(C4CCNCC4)c3)c(OC3CCC3)c2CC[C@@H]1C` [I-447]: the IC50 is below 100 nM in assay [1], below 50 nM in assay [2] and below 500 nM in assay [3].

On to `COC(=O)N1c2ccc(-c3cnn(CC(C)(C)O)c3)c(OCC3CCOCC3)c2CC[C@@H]1C` [I-449], for which the IC50 in assay [1] is 100 to 1000 nM; in assay [2], 50 to 500 nM; in assay [3], below 500 nM.

For `COC(=O)N1c2ccc(-c3cnn(C4CCNCC4)c3)c(OCC(C)C)c2CC[C@@H]1C` [I-458], the IC50 was 100 to 1000 nM in assay [1], below 50 nM in assay [2] and below 500 nM in assay [3].

In the case of `COC(=O)N1c2ccc(-c3cnn(CCS(C)(=O)=O)c3)c(OCC3CCCC3)c2CC[C@@H]1C` [I-459], the IC50 is 100 to 1000 nM in assay [1], 50 to 500 nM in assay [2] and above 1000 nM in assay [3].

In the case of `COC(=O)N1c2ccc(-c3cnn(CCO)c3)c(OCC3CCCC3)c2CC[C@@H]1C` [I-461], the IC50 was 100 to 1000 nM in assay [1], below 50 nM in assay [2] and 500 to 1000 nM in assay [3].

With `COC(=O)N1c2ccc(-c3cnn(C4CCNCC4)c3)c(OCC3CCCC3)c2CC[C@@H]1C` [I-462], the IC50 was 100 to 1000 nM in assay [1], below 50 nM in assay [2] and 500 to 1000 nM in assay [3].

For the compound `COC(=O)N1c2ccc(-c3cnn(C4CCNCC4)c3)c(OCC(=O)N3CCCC3)c2CC[C@@H]1C` [I-466], the figures for the IC50 in assay [1], in assay [2] and in assay [3] were 100 to 1000 nM, 50 to 500 nM and above 1000 nM, respectively.

As for `CC(=O)N1c2ccc(-c3cnn(C4CC4)c3)c(OCc3ccncc3)c2CC[C@@H]1C` [I-479], the IC50 is 1000 to 10000 nM in assay [1], below 50 nM in assay [2] and above 1000 nM in assay [3].

Turning to `CCCOc1c(-c2ccc(OCCN(C)C)cc2)ccc2c1CC[C@H](C)N2C(C)=O` [I-486], the IC50 in assay [1] is 1000 to 10000 nM; in assay [2], 50 to 500 nM; in assay [3], below 500 nM.

As to `CC(=O)N1c2ccc(-c3ccc(OCCN(C)C)cc3)c(OCC(=O)N(C)C)c2CC[C@@H]1C` [I-487], the IC50 was 1000 to 10000 nM in assay [1], at least 500 nM in assay [2] and above 1000 nM in assay [3].

For `CC(=O)N1c2ccc(-c3cccc(NS(C)(=O)=O)c3)c(OCC(=O)N(C)C)c2CC[C@@H]1C` [I-491], the IC50 was 1000 to 10000 nM in assay [1], 50 to 500 nM in assay [2] and above 1000 nM in assay [3].

With `CC(=O)N1c2ccc(-c3ccc4c(c3)CCN4S(C)(=O)=O)c(OCC(=O)N(C)C)c2CC[C@@H]1C` [I-501], the IC50 in assay [1] is 1000 to 10000 nM; in assay [2], 50 to 500 nM; in assay [3], above 1000 nM.

`CCCOc1c(-c2cc3ccccc3o2)ccc2c1CC[C@H](C)N2C(C)=O` [I-504]: the IC50 in assay [1] was 1000 to 10000 nM; in assay [2], at least 500 nM; in assay [3], above 1000 nM.
